Patent US8247211B2, “Glycopeptide antibiotics” (American Cyanamid Company, priority 2001, dated 2012)
≈ marks a conversion by molar mass, not a printed value.

What was measured:
Assay in all cases: In vitro antibacterial evaluation: minimum inhibitory concentration (MIC), broth dilution method
Format in all cases: cell-based
Enterococcus sp. = details: 18 hours at 35° C.
How it was run: (§1)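 NCCLS M7-A2 broth dilution with Mueller-Hinton II, testing 64-0.06 μg/mL antibiotic against 5×10^5 CFU/mL inocula. Test strains include recent methicillin-, penicillin- or vancomycin-resistant clinical isolates. MIC is the lowest concentration preventing growth.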

Streptococcus sp. = details: 18 hours at 35° C.
How it was run: as §1

Escherichia coli = details: 18 hours at 35° C.
How it was run: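 NCCLS M7-A2 broth dilution; Muller-Hinton II […]; 5×10^5 CFU/mL; 64-0.06 μg/mL. MIC = lowest concentration with no growth.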

Staphylococcus sp. = system: Staphylococcus sp.
How it was run: as §1

[1] = broth dilution, inoculum 5×10^5 CFU/mL

- MIC Enterococcus avium (GC 4558) (Enterococcus sp.; Enterococcus avium (GC 4558)): 8 µg/mL (≈ 5.82 µM)
- MIC Enterococcus faecalis (ATCC 29212) (Enterococcus sp.; Enterococcus faecalis (ATCC 29212)): 8 µg/mL (≈ 5.82 µM)
- MIC Enterococcus faecalis (GC 2242) (Enterococcus sp.; Enterococcus faecalis (GC 2242)): 4 µg/mL (≈ 2.91 µM)
- MIC Enterococcus faecalis (GC 2691) (Enterococcus sp.; Enterococcus faecalis (GC 2691)): 8 µg/mL (≈ 5.82 µM)
- MIC Enterococcus faecalis (GC 3059) (Enterococcus sp.; Enterococcus faecalis (GC 3059)): 8 µg/mL (≈ 5.82 µM)
- MIC Enterococcus faecalis (GC 4552) (Enterococcus sp.; Enterococcus faecalis (GC 4552)): 8 µg/mL (≈ 5.82 µM)
- MIC Enterococcus faecalis (GC 4553) (Enterococcus sp.; Enterococcus faecalis (GC 4553)): 8 µg/mL (≈ 5.82 µM)
- MIC Enterococcus faecalis (GC 4554) (Enterococcus sp.; Enterococcus faecalis (GC 4554)): 8 µg/mL (≈ 5.82 µM)
- MIC Enterococcus faecalis (GC 6189) (Enterococcus sp.; Enterococcus faecalis (GC 6189)): 8 µg/mL (≈ 5.82 µM)
- MIC Enterococcus faecium (GC 2243) (Enterococcus sp.; Enterococcus faecium (GC 2243)): 8 µg/mL (≈ 5.82 µM)
- MIC Enterococcus faecium (GC 4556) (Enterococcus sp.; Enterococcus faecium (GC 4556)): 4 µg/mL (≈ 2.91 µM)
- MIC Enterococcus faecium (GC 4557) (Enterococcus sp.; Enterococcus faecium (GC 4557)): 4 µg/mL (≈ 2.91 µM)
- MIC Enterococcus avium (GC 4558) (Enterococcus sp.; [1]): 8 µg/mL (≈ 5.82 µM)
- MIC Enterococcus faecalis (ATCC 29212) (Enterococcus sp.; [1]): 8 µg/mL (≈ 5.82 µM)
- MIC Enterococcus faecalis (GC 2242) (Enterococcus sp.; [1]): 4 µg/mL (≈ 2.91 µM)
- MIC Enterococcus faecalis (GC 2691) (Enterococcus sp.; [1]): 8 µg/mL (≈ 5.82 µM)
- MIC Enterococcus faecalis (GC 3059) (Enterococcus sp.; [1]): 8 µg/mL (≈ 5.82 µM)
- MIC Enterococcus faecalis (GC 4552) (Enterococcus sp.; [1]): 8 µg/mL (≈ 5.82 µM)
- MIC Enterococcus faecalis (GC 4553) (Enterococcus sp.; [1]): 8 µg/mL (≈ 5.82 µM)
- MIC Enterococcus faecalis (GC 4554) (Enterococcus sp.; [1]): 8 µg/mL (≈ 5.82 µM)
- MIC Enterococcus faecalis (GC 6189) (Enterococcus sp.; [1]): 8 µg/mL (≈ 5.82 µM)
- MIC Enterococcus faecium (GC 2243) (Enterococcus sp.; [1]): 8 µg/mL (≈ 5.82 µM)
- MIC Enterococcus faecium (GC 4556) (Enterococcus sp.; [1]): 4 µg/mL (≈ 2.91 µM)
- MIC Enterococcus faecium (GC 4557) (Enterococcus sp.; [1]): 4 µg/mL (≈ 2.91 µM)
- MIC Streptococcus agalactiae (GC 4564) (Streptococcus sp.; Streptococcus agalactiae (GC 4564)): 1 µg/mL (≈ 0.727 µM)
- MIC Streptococcus pneumoniae (ATCC 6301) (Streptococcus sp.; Streptococcus pneumoniae (ATCC 6301)): 0.5 µg/mL (≈ 0.364 µM)
- MIC Streptococcus pneumoniae (GC 1894) (Streptococcus sp.; Streptococcus pneumoniae (GC 1894)): 0.12 µg/mL (≈ 0.0872 µM)
- MIC Streptococcus pneumoniae (GC 4565) (Streptococcus sp.; Streptococcus pneumoniae (GC 4565)): 0.25 µg/mL (≈ 0.182 µM)
- MIC Streptococcus pyogenes (GC 4563) (Streptococcus sp.; Streptococcus pyogenes (GC 4563)): 0.5 µg/mL (≈ 0.364 µM)
- MIC Streptococcus agalactiae (GC 4564) (Streptococcus sp.; [1]): 1 µg/mL (≈ 0.727 µM)
- MIC Streptococcus pneumoniae (ATCC 6301) (Streptococcus sp.; [1]): 0.5 µg/mL (≈ 0.364 µM)
- MIC Streptococcus pneumoniae (GC 1894) (Streptococcus sp.; [1]): 0.12 µg/mL (≈ 0.0872 µM)
- MIC Streptococcus pneumoniae (GC 4565) (Streptococcus sp.; [1]): 0.25 µg/mL (≈ 0.182 µM)
- MIC Streptococcus pyogenes (GC 4563) (Streptococcus sp.; [1]): 0.5 µg/mL (≈ 0.364 µM)
- MIC Escherichia coli (ATCC 25922) (Escherichia coli; Escherichia coli (ATCC 25922)): 64 µg/mL (≈ 46.5 µM)
- MIC Escherichia coli (GC 4559) (Escherichia coli; Escherichia coli (GC 4559)): 32 µg/mL (≈ 23.3 µM)
- MIC Escherichia coli (GC 4560) (Escherichia coli; Escherichia coli (GC 4560)): 2 µg/mL (≈ 1.45 µM)
- MIC Staphylococcus aureus (ATCC 29213) (Staphylococcus sp.; strain ATCC 29213): 1 µg/mL (≈ 0.727 µM)
- MIC Staphylococcus aureus (GC 1131) (Staphylococcus sp.; strain GC 1131): 2 µg/mL (≈ 1.45 µM)
- MIC Staphylococcus aureus (GC 3051) (Staphylococcus sp.; strain GC 3051): 2 µg/mL (≈ 1.45 µM)
- MIC Staphylococcus aureus (GC 3053) (Staphylococcus sp.; strain GC 3053): 4 µg/mL (≈ 2.91 µM)
- MIC Staphylococcus aureus (GC 4541) (Staphylococcus sp.; strain GC 4541): 1 µg/mL (≈ 0.727 µM)
- MIC Staphylococcus aureus (GC 4542) (Staphylococcus sp.; strain GC 4542): 1 µg/mL (≈ 0.727 µM)
- MIC Staphylococcus aureus-SMITH (GC 4543) (Staphylococcus sp.; strain GC 4543): 2 µg/mL (≈ 1.45 µM)
- MIC Staphylococcus aureus (GC 4544) (Staphylococcus sp.; strain GC 4544): 2 µg/mL (≈ 1.45 µM)
- MIC Staphylococcus aureus (GC 4545) (Staphylococcus sp.; strain GC 4545): 1 µg/mL (≈ 0.727 µM)
- MIC Coagulase Negative Staphylococcus (GC 4547) (Staphylococcus sp.; strain GC 4547): 2 µg/mL (≈ 1.45 µM)
- MIC Coagulase Negative Staphylococcus (GC 4548) (Staphylococcus sp.; strain GC 4548): 1 µg/mL (≈ 0.727 µM)
- MIC Coagulase Negative Staphylococcus (GC 4549) (Staphylococcus sp.; strain GC 4549): 1 µg/mL (≈ 0.727 µM)
- MIC Coagulase Negative Staphylococcus (GC 4551) (Staphylococcus sp.; strain GC 4551): 2 µg/mL (≈ 1.45 µM)
- MIC Coagulase Negative Staphylococcus (GC 6257) (Staphylococcus sp.; strain GC 6257): 1 µg/mL (≈ 0.727 µM)
SMILES: CC(c1ccccc1)C1NC(=O)CNC(=O)C(CO)NC(=O)C(C(O)C2CNC(=N)N2C2OC(CO)C(O)C(O)C2O)NC(=O)C(C(O)C2CNC(=N)N2)NC(=O)C(Cc2ccc(OC3OC(CO)C(OC4OC5COC6(CCCCC6)OC5C(O)C4O)C(O)C3O)cc2)NC1=O (stereo not drawn) [Example 203, Cyclo[glycyl-β-methylphenylalanyl-O-[4-O-(4,6-O-cyclohexylidene-4-O-hexopyranosyl)hexopyranosyl]tyrosyl-3-(2-iminoimidazolidin-4-yl)seryl-3-(3-hexopyranosyl-2-iminoimidazolidin-4-yl)serylseryl]]
- MIC Staphylococcus haemolyticus (GC 4546) (Staphylococcus sp.; strain GC 4546): 1 µg/mL (≈ 0.727 µM)
